Key:
5-lipoxygenase (5-LO) = biological target: T1, 5-lipoxygenase (5-LO) (Rattus norvegicus, UniProt P12527); assay: RBL-1 cell 5-lipoxygenase and cyclooxygenase - Whole cells (Procedure II); format: cell-based; conditions: intact RBL-1 cells, 5-HETE; read-out: Procedure II (5-LO) Wh Cell IC50
T1 construct: endogenous in cells; host or cells: intact RBL-1 (rat basophilic leukemia) cells, stimulated with calcium ionophore A23187
T1 sequence (P12527 1-673): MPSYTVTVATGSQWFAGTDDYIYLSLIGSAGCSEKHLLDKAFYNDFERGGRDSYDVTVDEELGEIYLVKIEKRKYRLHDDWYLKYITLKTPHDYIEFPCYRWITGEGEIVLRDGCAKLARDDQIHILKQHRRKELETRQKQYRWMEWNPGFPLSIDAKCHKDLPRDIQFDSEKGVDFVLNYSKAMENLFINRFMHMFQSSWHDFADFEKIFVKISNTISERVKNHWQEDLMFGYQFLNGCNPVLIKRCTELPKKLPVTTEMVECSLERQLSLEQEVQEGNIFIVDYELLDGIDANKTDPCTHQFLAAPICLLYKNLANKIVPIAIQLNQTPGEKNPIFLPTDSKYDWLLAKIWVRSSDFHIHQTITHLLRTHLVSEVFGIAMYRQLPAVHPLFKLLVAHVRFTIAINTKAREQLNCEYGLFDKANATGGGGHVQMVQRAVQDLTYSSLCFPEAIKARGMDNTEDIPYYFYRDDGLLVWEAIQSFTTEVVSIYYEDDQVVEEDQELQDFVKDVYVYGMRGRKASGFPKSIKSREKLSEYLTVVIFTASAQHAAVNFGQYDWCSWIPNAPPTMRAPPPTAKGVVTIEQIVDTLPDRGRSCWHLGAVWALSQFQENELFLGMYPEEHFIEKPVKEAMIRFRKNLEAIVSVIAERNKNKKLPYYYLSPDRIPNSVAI
Method: RBL-1 Cell 5-Lipoxygenase and cyclooxygenase - Whole cells
The ability to inhibit 5-LO and CO in intact RBL-1 cells was also evaluated. […] Cells were collected by centrifugation, washed once in HBSS, and resuspended at a concentration of 1×10^5 cells/mL. Cells were incubated in the presence of vehicle or drug then centrifuged at 800×g for 10 minutes at 4° C. The supernatant was removed by aspiration and the cells were resuspended in 0.5 mL of HBSS. […] The conversion of M to 5-LO products was initiated by the addition of 10 μL (50 uCi) of 1-^14 C-AA. Products were isolated by acidification and extraction, followed by thin layer chromatography analysis as described above. Radioactive areas corresponding to authentic 5-LO (5-HETE) and CO (PGD2) products were quantitated by the Bioscan 2000 Imaging System.

LTB4 production = assay: Ex vivo LTB4 production in peripheral (whole) blood of beagle dogs after oral dosing (Procedure IV)
Method: (§1) Sterile perforated teflon chambers (wiffle golf balls) were surgically implanted subcutaneously in the dorsal neck fold of beagle dogs (8-13 kg, mixed sex). After a recovery period of 1 month, a 1 ml sample of fluid exudate from each dog was aspirated from within the chamber using a 1 ml syringe and 20 gauge 1 inch needle inserted through one of the perforations in the ball. Immediately after obtaining the sample, 1.5 ml of 0.33% sterile carrageenan lambda (Sigma Chemical Co., St. Louis, Mo.) was injected into the chamber. Dilutions of the baseline samples were made in saline and analyzed for leukocyte count using a Coulter Counter (6.08-50 μm range). The sample was also analyzed for concentrations of PGE2 and LTB4 by adding 200 μl of sample to 1 ml ethanol and centrifuging the precipitate (1,500 X g, 7 min). The supernatant was aspirated and stored at 0° C. until enzyme linked immunosorbant assays (ELISAs) were performed (ELISA Technologies, Lexington, Ky.). Samples were also drawn at 5 and 24 hours post carrageenan challenge and treated in a similar manner. […]
(§2) Drug effects can be evaluated on several important aspects of inflammation using this in-vivo assay. […] Selectivity of a COX inhibitor can be determined by comparing PGE2 inhibition in peripheral blood (COX-1) to that of the inflammatory fluid exudate in the chamber (COX-2).

[1] = tested on: inflammatory cells (leukocyte influx); assay: Carrageenan-induced inflammation in subcutaneous chambers in beagle dogs: cellular (leukocyte) influx (Procedure IV); format: in vivo; conditions: oral
Method: (§3) Carrageenan-Induced Localized Inflammation In Subcutaneous Chambers Implanted In Beagle Dogs
as §1, with “Ky.).” for “Ky.). Samples were also drawn at 5 and 24 hours post carrageenan challenge and treated in a similar manner.”
as §2

LTB4 levels = assay: Carrageenan-induced inflammation in subcutaneous chambers in beagle dogs: LTB4 levels in fluid exudate (Procedure IV); format: in vivo; conditions: oral
Method: as §3
as §1, with “Ky.).” for “Ky.). Samples were also drawn at 5 and 24 hours post carrageenan challenge and treated in a similar manner.”
as §2

For `CS(=O)(=O)Nc1ccc(Oc2ccc(F)cc2)s1` [Example 1], the IC50 (5-lipoxygenase (5-LO)) was 460 nM, the ED50 (LTB4 production; Canis lupus familiaris, 5 h, five hours after oral administration, ex vivo, read-out: inhibition of peripheral LTB4 production, IC50) was 4.4 mg/kg and the “inhibition of LTB4 production in whole blood” value (LTB4 production; at 24 hours following dosing, oral) was “No inhibition of LTB4 production in whole blood was detected”. The ED50 ([1]; Canis lupus familiaris, Leukocyte, inflammatory chamber exudate, read-out: ED50 for inhibition of cellular influx) was less than 0.01 mg/kg, the “inhibition of accumulation of inflammatory cells in the exudate” value ([1]; inflammatory chambers) was “dose related inhibition” and the ED50 (LTB4 levels; Canis lupus familiaris, inflammatory chamber exudate, read-out: ED50 for inhibition of fluid LTB4 levels) was less than 0.01 mg/kg. The “inhibition of LTB4 levels measured in the fluid” value (LTB4 levels; inflammatory chambers) was “dose related inhibition”.

From US5783597A, “2,5-disubstituted thiophenes: inhibitors of 5-lipoxygenase and inducible cyclooxygenase (COX-2) enzymes, composition and use” (Ortho Pharmaceutical Corporation, priority 1997, dated 1998)
